Experimental data published in patent publication US11192849B2, “Compounds, compositions, and methods for modulating ferroptosis and treating excitotoxic disorders” (THE TRUSTEES OF COLUMBIA UNIVERSITY IN THE CITY OF NEW YORK, priority 2013, dated 2021).
Read-outs that look alike come from different tables or passages of the source.

Key:
[1] = Metabolic stability in mouse liver microsomes; type: in vitro ADME; details: for Elimination rate constant (k) / Intrinsic Clearance (CLint) (mL/min/g liver): Mouse; for half-life at 0.5 μM: mouse, liver microsomes
Protocol: Test compounds (0.5 μM) were incubated at 37° C. for up to 45 minutes in 50 mM of potassium phosphate buffer (pH 7.4) containing mouse liver microsomal protein (0.5 mg/mL) and an NADPH generating system (0.34 mg/mL β-nicotinamide adenine dinucleotide phosphate (NADP), 1.56 mg/mL glucose-6-phosphate, 1.2 units/mL glucose-6-phosphate dehydrogenase). At 0, 5, 15, 30, and 45 minute intervals, an aliquot was taken and quenched with acetonitrile (ACN) containing internal standard. No-cofactor controls at 45 minutes were prepared. Following completion of the experiment, the samples were analyzed by LC-MS/MS.
The half-life (t1/2) was calculated using the following equation: t1/2=0.693/k Where, k is the elimination rate constant of test compounds obtained by fitting the data to the equation: C=initial×exp(−k×t) Intrinsic clearance (Clint) is calculated as liver clearance from the half-life using the following equation: […]
0.5 mg protein/mL incubation
Ethoxycoumarin was used as a control.

HT-1080 cells = assay: Inhibition of erastin (10 μM)-induced death in HT-1080 cells (Alamar Blue); type: cell-based, human; details: for EC50: read-out: EC50; for prevention of erastin-induced death: erastin-treated HT-1080 cells
Protocol: Cell viability was typically assessed in 384-well format by Alamar Blue (Invitrogen) fluorescence (ex/em 530/590) measured on a Victor3 platereader (Perkin Elmer, Waltham, Mass.). In some experiments, Trypan Blue dye exclusion counting was performed using an automated cell counter (ViCell, Beckman-Coulter Inc., Brea, Calif.). Cell viability in test conditions is reported as a percentage relative to the negative control treatment.
The ability of various compounds disclosed herein to inhibit death in erastin (10 μM)-treated HT-1080 cells were tested. Cell viability was assessed by Alamar Blue. EC50 values (nM) were computed from dose response curves.
HT-1080 cells are cultured in DMEM containing 10% fetal bovine serum, 1% supplemented non-essential amino acids and 1% pen/strep mixture (Gibco) and maintained in a humidified environment at 37° C. with 5% CO2 in a tissue culture incubator. 1,000 HT-1080 cells are seeded per well in duplicate 384-well plates (Corning) using a BioMek FX liquid handling robot (Beckman Coulter). The next day, the medium is replaced with 36 μL of medium containing 10 μM erastin with 4 μL of medium containing a dilution series (previously prepared) of DMSO, Fer-1 (positive control) or Fer-1 analogs. 24 hours later, 10 μL Alamar Blue (Invitrogen) cell viability solution is added to the growth media to a final concentration of 10%. Cells are incubated a further 6 hours and then the Alamar Blue fluorescence intensity recorded using a Victor 3 platereader (PerkinElmer)(ex/em 530/590). All experiments are performed at least twice and the background (no cells)-subtracted Alamar Blue values for each combination are averaged between replicates.

[2] = In vitro stability study in mouse plasma; type: in vitro ADME
Protocol: The assay was conducted by incubating 1 μM of test compounds with Mouse Plasma (Strain […]) for a series of incubation times (0, 15, 30, 60, 120 minutes) at various temperatures (wet ice, room temperature, or 37° C.) with 5% CO2 and shaking (130 rpm). At each time point, the samples were quenched with 200 μL of stop solution containing an internal standard and kept on ice. The samples were analysed by LC-MS/MS.

[3] = pH 7.4, Mouse, Compound Conc = 0.5 μM, read-out: Half life (t½)
[4] = Homo sapiens, HT-1080, Table 1 (Example 10), erastin (10 μM)-treated HT-1080 cells
[5] = Homo sapiens, HT-1080, SI Table 3, cyclic amines bearing heteroatoms
[6] = Homo sapiens, HT-1080, SI Table 7
[7] = SI Table 2, analogs with various hydrophobic moieties
[8] = SI Table 3, cyclic amines bearing heteroatoms
[9] = Homo sapiens, HT-1080, SI Table 5
[10] = Homo sapiens, HT-1080, SI Table 2, analogs with various hydrophobic moieties

CCOc1ccc2ccc(=O)oc2c1 [Ethoxycoumarin, reference compound]
Elimination rate constant (k) ([1]; Compound Conc = 0.5 μM): 0.2661
Intrinsic Clearance (CLint) (mL/min/g liver) ([1]; Compound Conc = 0.5 μM): 27.94 mL/min/g liver
half-life at 0.5 μM [1, 3]: 0.0433 h

CCOC(=O)c1ccc(NC23CC4CC(CC(C4)C2)C3)c(/N=C\c2cncnc2)c1 [SRS15-72, ethyl 4-(adamantylamino)-3-(pyrimidin-5-ylmethyleneamino)benzoate]
Elimination rate constant (k) ([1]; Compound Conc = 0.5 μM): 0.0045
Intrinsic Clearance (CLint) (mL/min/g liver) ([1]; Compound Conc = 0.5 μM): 0.47 mL/min/g liver
half-life at 0.5 μM [1, 3]: 2.57 h
EC50 (HT-1080 cells; [4]): 288 nM
Peak Area Ratio ([2]; Room Temperature, 0 min): 2.0737
Percent Remaining ([2]; Room Temperature, 0 min): 100.0%
Peak Area Ratio ([2]; Room Temperature, 15 min): 1.1581
Percent Remaining ([2]; Room Temperature, 15 min): 55.8%
Peak Area Ratio ([2]; Room Temperature, 30 min): 0.5320
Percent Remaining ([2]; Room Temperature, 30 min): 25.7%
Peak Area Ratio ([2]; Room Temperature, 60 min): 0.2502
Percent Remaining ([2]; Room Temperature, 60 min): 12.1%
Peak Area Ratio ([2]; Room Temperature, 120 min): 0.0841
Percent Remaining ([2]; Room Temperature, 120 min): 4.1%
Peak Area Ratio ([2]; Wet Ice, 0 min): 2.6066
Percent Remaining ([2]; Wet Ice, 0 min): 100.0%
Peak Area Ratio ([2]; Wet Ice, 15 min): 2.0815
Percent Remaining ([2]; Wet Ice, 15 min): 79.9%
Peak Area Ratio ([2]; Wet Ice, 30 min): 1.6279
Percent Remaining ([2]; Wet Ice, 30 min): 62.5%
Peak Area Ratio ([2]; Wet Ice, 60 min): 1.4397
Percent Remaining ([2]; Wet Ice, 60 min): 55.2%
Peak Area Ratio ([2]; Wet Ice, 120 min): 1.2446
Percent Remaining ([2]; Wet Ice, 120 min): 47.7%

CC(C)OC(=O)c1ccc(NC23CC4CC(CC(C4)C2)C3)c(/N=C\c2cncnc2)c1 [SRS16-80, isopropyl 4-(adamantylamino)-3-(pyrimidin-5-ylmethyleneamino)benzoate]
Elimination rate constant (k) ([1]; Compound Conc = 0.5 μM): 0.0089
Intrinsic Clearance (CLint) (mL/min/g liver) ([1]; Compound Conc = 0.5 μM): 0.94 mL/min/g liver
half-life at 0.5 μM [1, 3]: 1.29 h
half-life at 0.5 μM ([1]; pH 7.4, stated in the text of Example 15, read-out: T1/2 in mouse liver microsomes): 2.57 h
fold lower potency caused by the imine (HT-1080 cells; HT-1080, erastin (10 μM)): about 6 fold
EC50 (HT-1080 cells; Homo sapiens, HT-1080, Example 15, erastin (10 μM), HT-1080): ~300 nM
EC50 (HT-1080 cells; [4]): 583 nM
mouse plasma stability [2]: rapidly hydrolyzed
Percent Remaining ([2]; 37° C., 0 minutes): 100.0%
Sum of Peak Area Ratios ([2]; 37° C., 0 minutes): 0.382
Percent Remaining ([2]; 37° C., 15 minutes): 23.8%
Sum of Peak Area Ratios ([2]; 37° C., 15 minutes): 0.0911
Percent Remaining ([2]; 37° C., 30 minutes): 9.9%
Sum of Peak Area Ratios ([2]; 37° C., 30 minutes): 0.0379
Percent Remaining ([2]; 37° C., 60 minutes): 4.5%
Sum of Peak Area Ratios ([2]; 37° C., 60 minutes): 0.017
Percent Remaining ([2]; 37° C., 120 minutes): 2.5%
Sum of Peak Area Ratios ([2]; 37° C., 120 minutes): 0.0095
half-life at 1 μM ([2]; C57BL/4, mouse, plasma, read-out: T1/2 in mouse plasma): < 0.25 h

CCOC(=O)c1ccc(NC2CCC(F)(F)CC2)c(N)c1 [SRS8-52, ethyl 3-amino-4-(4,4-difluorocyclohexylamino)benzoate]
EC50 (HT-1080 cells; [5]): 650 nM

CCOC(=O)c1ccc(NC2CCCCC2)c(NCc2ccc(F)c(C#N)c2)c1 [SRS12-54, ethyl 3-(3-cyano-4-fluorobenzylamino)-4-(cyclohexylamino)-benzoate]
EC50 (HT-1080 cells; [6]): 159 nM

COC(=O)CCC(=O)C(=O)OC [DMK, dimethyl alpha ketoglutarate, reference compound]
prevention of erastin-induced death (HT-1080 cells): the lethality of erastin was restored

CCOC(=O)c1ccc(NC2CCCCC2)c(NCc2ccc(C)cc2)c1 [SRS12-34, ethyl 4-(cyclohexylamino)-3-((4-methylbenzyl)amino)benzoate]
EC50 (HT-1080 cells; Homo sapiens, HT-1080, SI Table 6): 40 nM

CCOC(=O)c1ccc(NC2CCC(NC(=O)OC(C)(C)C)CC2)c(N)c1 (stereo not drawn) [SRS8-46, ethyl 3-amino-4-(4-(tert-butoxycarbonylamino)cyclohexyl-amino)benzoate]
EC50 (HT-1080 cells; [5]): 515 nM

CCOC(=O)c1ccc(NC2CCC(C(C)(C)C)CC2)c(N)c1 (single isomer, unassigned) [SRS13-10_F2, Ethyl 3-amino-4-(4-tert-butylcyclohexyl-amino)benzoate]
EC50 (HT-1080 cells; [7]): 13 nM

CCOC(=O)c1ccc(Cl)c(N)c1 [SRS8-62]
EC50 (HT-1080 cells; SI Table 8): > 10000 nM

CCOC(=O)c1ccc(NC2CCOCC2)c(N)c1 [SRS8-41]
EC50 (HT-1080 cells; [8]): 1450 nM

CCOC(=O)c1ccc(NC2CCC(C(C)(C)C)CC2)c(NCc2ccccc2)c1 (single isomer, unassigned) [SRS13-29, ethyl 3-(benzylamino)-4-(4-tert-butylcyclohexylamino)benzoate]
EC50 (HT-1080 cells; [6]): 83 nM

CC(=O)OCOC(=O)CN(CC(=O)OCOC(C)=O)c1ccccc1OCCOc1ccccc1N(CC(=O)OCOC(C)=O)CC(=O)OCOC(C)=O [BAPTA-AM, reference compound]
prevention of erastin-induced death (HT-1080 cells): had no effect on erastin-induced death

Cc1ccc(N(CC(=O)O)CC(=O)O)c(OCCOc2cc3cc(-c4ncc(C(=O)O)o4)oc3cc2N(CC(=O)O)CC(=O)O)c1 [Fura-2, reference compound]
prevention of erastin-induced death (HT-1080 cells): had no effect on erastin-induced death

CCOC(=O)c1ccc(NC2C3CC4CC(C3)CC2C4)c(NCc2ccccc2)c1 (stereo not drawn) [SRS15-20_mono, ethyl 3-(benzylamino)-4-(2-adamantylamino)benzoate]
EC50 (HT-1080 cells; [4]): 21.7 nM

O=C(O)CN(CCOCCOCCN(CC(=O)O)CC(=O)O)CC(=O)O [EGTA, reference compound]
prevention of erastin-induced death (HT-1080 cells): had no effect on erastin-induced death

CCOC(=O)c1ccc(NC2CCCCCCC2)c(N(C)C)c1 [SRS9-01, ethyl 4-(cyclooctylamino)-3-(dimethylamino)benzoate]
EC50 (HT-1080 cells; [9]): 3000 nM

CCOC(=O)c1ccc(Nc2ccccc2)c(N)c1 [SRS8-42, ethyl 3-amino-4-(phenylamino)benzoate]
EC50 (HT-1080 cells; [10]): 200 nM

CCOC(=O)c1ccc(NC2CCCC2)c(N)c1 [SRS8-73]
EC50 (HT-1080 cells; [7]): 120 nM

CCOC(=O)c1ccc(NC2C3CC4CC(C3)CC2C4)c(N)c1 (stereo not drawn) [SRS15-17, ethyl 3-amino-4-(2-adamantylamino)benzoate]
EC50 (HT-1080 cells; [4]): 171 nM

CCOC(=O)c1ccc(NC2CCC(C(C)(C)C)CC2)c(N)c1 (single isomer, unassigned) [SRS13-10_F1, Ethyl 3-amino-4-(4-tert-butylcyclohexyl-amino)benzoate]
EC50 (HT-1080 cells; [7]): 44 nM

O=C(O)C(Cl)Cl [DCA, dichloroacetic acid, reference compound]
prevention of erastin-induced death (HT-1080 cells): had no effect on erastin-induced ferroptosis

CCOC(=O)c1ccc(NC2CCCCC2)c(NC(=O)OC)c1 [SRS11-97, ethyl 4-(cyclohexylamino)-3-(methoxycarbonylamino)benzoate]
EC50 (HT-1080 cells; [9]): > 10000 nM

CCOC(=O)c1ccc(NC2CCN(C(=O)OC(C)(C)C)CC2)c(N)c1 [SRS8-47, tert-butyl 4-(2-amino-4-(ethoxycarbonyl)phenylamino)-piperidine-1-carboxylate]
EC50 (HT-1080 cells; [5]): 710 nM

CCOC(=O)c1ccc(NC2CCCCCCC2)c(N)c1 [SRS8-70, ethyl 3-amino-4-(cyclooctylamino)benzoate]
EC50 (HT-1080 cells; [10]): 80 nM
EC50 (HT-1080 cells; [9]): 69 nM

CCOC(=O)c1ccc(NC2CCC(C)CC2)c(N)c1 (stereo not drawn) [SRS8-48, ethyl 3-amino-4-(4-methylcyclohexylamino)benzoate]
EC50 (HT-1080 cells; [10]): 90 nM

CCOC(=O)c1ccc(NC23CC4CC(CC(C4)C2)C3)c(NCc2ccncc2)c1 [SRS15-24, ethyl 4-(1-adamantylamino)-3-((pyridin-4-ylmethyl)amino)-benzoate]
EC50 (HT-1080 cells; [4]): 8.6 nM

CCOC(=O)c1ccc(NN2CCN(C)CC2)c(N)c1 [SRS8-53]
EC50 (HT-1080 cells; [8]): 3600 nM
